The values below come from PMC8370991, “Structural basis for the inhibition of HTLV-1 integration inferred from cryo-EM deltaretroviral intasome structures” (Nature Communications, 2021).

Read-outs that look alike come from different tables or passages of the source.

Assay [1] has as its system HIV-1. To be noted: cited from earlier work.
For assay [2], the target named is T1, recombinant HTLV-1 IN (Human T-cell leukemia virus 1, UniProt P03362).
T1 construct: made in house
The experiment in a line: In vitro integration strand transfer assay with HTLV-1 IN. In kind it is biochemical. To be noted: for HTLV-1 IN strand transfer activity (No drug = 100): INSTI at 634 nM. The method in brief: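 Recombinant HTLV-1 IN (4 μg) with annealed 3′-processed LTR donor DNA (0.53 μM) preincubated 15 min RT with compound (screen at 634 nM) in PIPES pH 6.0, NaCl, MgCl2, ZnCl2, DTT; supercoiled plasmid target added, 1 h 37 °C. Concerted integration product quantified by agarose-gel densitometry; IC50 from dose–response fits, triplicate.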

Assay [3] relates to HTLV-1. The experiment in a line: MT-2-Jurkat cell-to-cell HTLV-1 infection, proviral load by qPCR. It counts as cell-based. As to the method:
Six of the most promising compounds were selected for assessment of their efficacy in inhibiting HTLV-1 viral infection. To this end, we employed an MT-2-Jurkat co-culture relying on cell-to-cell-based HTLV-1 transmission, which we successfully used in a previous study. In this assay format, the infection of Jurkat cells is measured via real-time quantitative PCR (qPCR) determination of the proviral load (PVL). […] A block in the integration reaction was confirmed by Alu-qPCR experiments (Supplementary Fig. 6). […] We suspect this is owing to a more efficient uptake of BIC than RAL by Jurkat T cells.
MT-2 and E6.1 Jurkat T-cell lines (ATCC) were used for the experiments. The cells were cultured at 37 °C with 5% CO2 and maintained in Roswell Park Memorial Institute (RPMI) media supplemented with 10% fetal bovine serum (FBS), 100 U penicillin, 100 μg/mL streptomycin and 0.25 μg/mL fungizone.
The HTLV-1 cell-to-cell infection was performed as previously described; Jurkat T cells were counted and diluted in complete RPMI to a final concentration of 0.25 × 10^6 cells/ml and pre-treated with INSTI drugs (final concentration ranging from 0.2 pM to 2 μM) or DMSO as a control for 24 h. MT-2 cells were resuspended in RPMI at a concentration of 2 × 10^6 cells/ml and subjected to a nonlethal γ-radiation dose of 400 Gy. Cells were resuspended at a concentration of 2 × 10^6 cells/ml in serum-free RPMI supplemented with the corresponding INSTI drug. Co-culture of 0.5 × 10^6 for each cell line was carried out for 16 h, after which cells were washed in PBS and resuspended in 1 ml of depletion buffer (PBS, 0.1% FBS and 2 mM EGTA). MT-2 cells were depleted from the culture by means of anti-CD25 magnetic beads (DynabeadsTM CD25, Thermo Fisher). Depletion efficiency was confirmed via flow cytometry as described previously. Jurkat cells were cultured for 2 weeks in complete RPMI supplemented with the drugs and genomic DNA was extracted (DNeasy kit, Qiagen) and stored at −20 °C for subsequent analysis. All the experiments were done in triplicate.
The PVL was measured as previously described[9],[53],[54]. Jurkat genomic DNA was quantified and diluted to a concentration of 5 ng/μL. Real-time qPCR analysis were conducted on 20 ng of gDNA to measure the level of HTLV-1 tax and gapdh genes (Supplementary Table 5). For the standard curve, the gDNA from an HTLV-1 naturally infected T-cell clone (clone 11.50, courtesy of professor Charles Bangham), which has one copy of tax and two of gapdh, was used. The integrated provirus copy number was calculated as follows: (tax copy numbers)/(2×gapdh copy number)[53], and normalised to the DMSO-treated control which was set to 100%. The PVL data were fitted to a dose–response curve in Prism 7 and the EC50 was calculated. Alu-PCR was performed as previously described in ref. [55]. In brief, the first PCR reaction was done with Phusion polymerase starting from 80 ng of gDNA using the ALU-specific primers (Alu-F/Gag-R). The nested PCR was run diluting the amplificated product 1:50. The reaction was done as a qPCR using Gag-specific primers (Gag-R/Gag-F) and the Luna SYBR dye reaction mix (New England Biolabs). The integrated provirus copy numbers were normalised to GAPDH and Jurkat cells treated with DMSO and infected with HTLV-1 were set to 100%. Experiments were done in triplicate.

Setting [4] is: Replicate 1, read-out: HTLV-1 IN strand transfer IC50.
Setting [5] is: Replicate 2, read-out: HTLV-1 IN strand transfer IC50.
Setting [6] is: Replicate 3, read-out: HTLV-1 IN strand transfer IC50.
The mark [7] stands for this setting: integrase strand-transfer drug titration, n = 3, read-out: HTLV-1 IC50 ± stdev.
Setting [8] is: HTLV-1 infection of Jurkat T cells.
Setting [9] is: MT-2-Jurkat cell-to-cell infection, proviral load, n = 3, read-out: HTLV-1 EC50 ± stdev.
Setting [10] is: Replicate 1, read-out: HTLV-1 infection EC50.
Setting [11] is: Replicate 2, read-out: HTLV-1 infection EC50.
Where [12] appears, read: Replicate 3, read-out: HTLV-1 infection EC50.
The mark [13] stands for this setting: previously reported, read-out: EC50, infection by wild-type HIV-1.

T1 sequence (P03362 1168-1462): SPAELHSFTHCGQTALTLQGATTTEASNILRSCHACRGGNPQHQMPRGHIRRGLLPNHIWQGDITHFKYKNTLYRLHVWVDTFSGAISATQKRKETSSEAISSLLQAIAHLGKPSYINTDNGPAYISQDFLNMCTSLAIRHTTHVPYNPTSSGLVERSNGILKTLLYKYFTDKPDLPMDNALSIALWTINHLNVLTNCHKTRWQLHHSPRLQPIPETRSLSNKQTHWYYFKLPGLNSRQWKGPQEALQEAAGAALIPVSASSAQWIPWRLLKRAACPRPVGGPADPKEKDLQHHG

Usually EC50 stands for the midpoint of the concentration-response curve. As usually defined, the IC50 is the concentration that gives 50% inhibition. Turning to `Nc1c(C(=O)NCc2ccc(F)cc2F)c(=O)n(O)c2ncc(CCS(=O)(=O)c3ccccc3)cc12` [XZ446, 4-amino-N-(2,4-difluorobenzyl)-1-hydroxy-2-oxo-6-(2-(phenylsulfonyl)ethyl)-1,2-dihydro-1,8-naphthyridine-3-carboxamide], the EC50 in assay [1] (previously reported, read-out: EC50, inhibitory potency for HIV-1) is 2 ± 0.1 nM; in assay [3] (setting [9]), 2.57 ± 0.81 nM; in assay [3] (setting [10]) it was 3.46 nM; in assay [3] (setting [11]), 2.16 nM; in assay [3] (setting [12]), 1.94 nM. The “HTLV-1 IN strand transfer activity (No drug = 100)” value is reported as 11.4924% in assay [2] (Replicate 1), 20.4545% in assay [2] (Replicate 2) and 15.1675% in assay [2] (Replicate 3). The IC50 was determined as 143 nM in assay [2] (setting [4]), 85 nM in assay [2] (setting [5]), 126 nM in assay [2] (setting [6]) and 115 ± 9.5 nM in assay [2] (setting [7]). Further, in assay [3] (setting [8]), the “improvement in EC50 compared with RAL” value is ~2.5- to fivefold and two- to fivefold.
Take `CC(C)n1c(C(=O)N(C)C)c2c(c(O)c1=O)C(=O)N(Cc1ccc(F)c(Cl)c1)CC2` [XZ236, 6-(3-chloro-4-fluorobenzyl)-4-hydroxy-2-isopropyl-N,N-dimethyl-3,5-dioxo-2,3,5,6,7,8-hexahydro-2,6-naphthyridine-1-carboxamide, reference compound]: the EC50 is 17 ± 4 nM in assay [1] (HIV-1 infection model, supplementary ref 7, read-out: HIV-1 EC50 ± stdev); 3.74 ± 1.42 nM in assay [3] (setting [9]); 5.38 nM in assay [3] (setting [10]); 1.48 nM in assay [3] (setting [11]); 4.41 nM in assay [3] (setting [12]). Moreover, the “HTLV-1 IN strand transfer activity (No drug = 100)” value came to 9.7581% in assay [2] (Replicate 1), 22.4849% in assay [2] (Replicate 2) and 26.0036% in assay [2] (Replicate 3). Moreover, the IC50 in assay [2] (setting [4]) is 130 nM; in assay [2] (setting [5]) it was 504 nM; in assay [2] (setting [6]), 301 nM; in assay [2] (setting [7]), 322 ± 121 nM. For the same molecule, the “inhibition of HTLV-1 IN in the screen compared with RAL” value in assay [2] (each compound at 634 nM) is “outperformed RAL”.
Take `Nc1c(C(=O)NCc2ccc(F)cc2F)c(=O)n(O)c2ncc(CCC(=O)NCCO)cc12` [XZ448, 4-amino-N-(2,4-difluorobenzyl)-1-hydroxy-6-(3-((2-hydroxyethyl)amino)-3-oxopropyl)-2-oxo-1,2-dihydro-1,8-naphthyridine-3-carboxamide]: the EC50 in assay [1] (setting [13]) was 263 ± 52 nM; in assay [3] (setting [9]) it was 139 ± 81 nM; in assay [3] (setting [10]) it was 125 nM; in assay [3] (setting [11]) it was 146 nM; in assay [3] (setting [12]), 116 nM. Also, the “HTLV-1 IN strand transfer activity (No drug = 100)” value in assay [2] (Replicate 1) was determined as 5.498%; in assay [2] (Replicate 2), 23.674%; in assay [2] (Replicate 3) it was 16.1231%. Also, the IC50 in assay [2] (setting [4]) was found to be 99 nM; in assay [2] (setting [5]), 227 nM; in assay [2] (setting [6]) it was 108 nM; in assay [2] (setting [7]), 132 ± 29.7 nM. In addition, the “lower activity in blocking HTLV-1 infection compared with RAL” value in assay [3] (setting [8]) is reported as ~ 20 fold.
With `CN(C)C(=O)CCc1cnc2c(c1)c(N)c(C(=O)NCc1ccc(F)cc1F)c(=O)n2O` [XZ450, 4-amino-N-(2,4-difluorobenzyl)-6-(3-(dimethylamino)-3-oxopropyl)-1-hydroxy-2-oxo-1,2-dihydro-1,8-naphthyridine-3-carboxamide], the EC50 in assay [1] (setting [13]) was 5 ± 1.3 nM; in assay [3] (Primate T-lymphotropic virus 1, read-out: HTLV-1 EC50 ± stdev, MT-2-Jurkat cell-to-cell infection, proviral load, n = 3) it was 1.67 ± 1.52 nM; in assay [3] (Primate T-lymphotropic virus 1, read-out: HTLV-1 infection EC50, Replicate 1) it was 2.34 nM; in assay [3] (Primate T-lymphotropic virus 1, read-out: HTLV-1 infection EC50, Replicate 2), 1.89 nM; in assay [3] (Primate T-lymphotropic virus 1, read-out: HTLV-1 infection EC50, Replicate 3) it was 1.25 nM. The “HTLV-1 IN strand transfer activity (No drug = 100)” value in assay [2] (Replicate 1) came to 10.2814%; in assay [2] (Replicate 2) it was 19.561%; in assay [2] (Replicate 3) it was 9.5729%. Moreover, the IC50 turned out to be 115 nM in assay [2] (setting [4]), 180 nM in assay [2] (setting [5]), 76 nM in assay [2] (setting [6]) and 120 ± 36.1 nM in assay [2] (setting [7]). In addition, in assay [3] (setting [8]), the “improvement in EC50 compared with RAL” value is ~2.5- to fivefold and two- to fivefold.
Turning to `Nc1c(C(=O)NCc2ccc(F)cc2F)c(=O)n(O)c2ncc(CCCO)cc12` [XZ423, 4-amino-N-(2,4-difluorobenzyl)-1-hydroxy-6-(3-hydroxypropyl)-2-oxo-1,2-dihydro-1,8-naphthyridine-3-carboxamide], the EC50 in assay [1] (HIV-1 infection model, supplementary ref 1, read-out: HIV-1 EC50 ± stdev) was 3.1 ± 2 nM; in assay [3] (setting [9]), 4.11 ± 1.52 nM; in assay [3] (setting [10]) it was 3.95 nM; in assay [3] (setting [11]), 3.49 nM; in assay [3] (setting [12]), 1.75 nM. The entries for the “HTLV-1 IN strand transfer activity (No drug = 100)” value in assay [2] (Replicate 1), in assay [2] (Replicate 2) and in assay [2] (Replicate 3) were 5.722%, 15.1459% and 14.6599%, respectively. The IC50 turned out to be 144 nM in assay [2] (setting [4]), 185 nM in assay [2] (setting [5]), 155 nM in assay [2] (setting [6]) and 155 ± 33.5 nM in assay [2] (setting [7]).
